Measured values published in patent US11702409B2, “Pyrazolyl derivatives useful as anti-cancer agents” (NOVARTIS AG, priority 2019, dated 2023).
pIC50: −log10 of the molar value.

Molecular target: KRasG12C (M1-K169, biotinylated on the N-terminus) (Homo sapiens (Human), UniProt P01116, G12C)
Test: Covalent competition assay (scintillation proximity assay, competition with radiolabeled covalent probe Compound B)
Assay type: binding
Details: in vitro KRASG12C activity; 10 nM KRasG12C:GDP, 25 nM radio-ligand and 475 nM unlabelled ligand, incubated 2 hours; read-out: Covalent Competition Assay IC50
How it was run: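 Biotinylated KRasG12C (M1-K169):GDP incubated 2 h with agitation with serially diluted compounds premixed with a fixed concentration of radiolabeled covalent probe; scintillation proximity read-out of competition for covalent modification. Buffer 20 mM Tris-HCl pH 7.5, 150 mM NaCl, 0.1 mM MgCl2, 0.01% Tween-20. IC50 from 4-parameter fit.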

pIC50 | SMILES
7.31 | C=CC(=O)N1CC2(CC(n3nc(-c4ccc(CN5CCCC5=O)cc4)c(-c4c(Cl)c(C)cc5[nH]ncc45)c3C)C2)C1 [Example 48, 1-(4-(1-(2-acryloyl-2-azaspiro[3.3]heptan-6-yl)-4-(5-chloro-6-methyl-1H-indazol-4-yl)-5-methyl-1H-pyrazol-3-yl)benzyl)pyrrolidin-2-one]
< 4.30 | C=CC(=O)N1CC2(CC(n3nc(C4=CN5CC(C)(C)N=C5C(F)=C4)c(-c4c(Cl)c(C)cc5[nH]ncc45)c3C)C2)C1 (single isomer, unassigned) [Example 73b]
7.52 | C=CC(=O)N1CC2(CC(n3nc(-c4ccccc4)c(-c4c(Cl)c(C)cc5[nH]nc(N)c45)c3C)C2)C1 (single isomer, unassigned) [Example 70a, 1-{6-[(4M)-4-(3-Amino-5-chloro-6-methyl-1H-indazol-4-yl)-5-methyl-3-phenyl-1H-pyrazol-1-yl]-2-azaspiro[3.3]heptan-2-yl}prop-2-en-1-one]
5.40 | C=CC(=O)N1CC2(CC(n3nc(-c4ccc5c(cnn5CCO)c4)c(-c4c(Cl)c(C)cc5[nH]ncc45)c3C)C2)C1 (single isomer, unassigned) [Example 83b, 1-(6-(4-(5-chloro-6-methyl-1H-indazol-4-yl)-3-(1-(2-hydroxyethyl)-1H-indazol-5-yl)-5-methyl-1H-pyrazol-1-yl)-2-azaspiro[3.3]heptan-2-yl)prop-2-en-1-one]
< 4.30 | C=CC(=O)N1CC2(CC(n3nc(-c4ccc5nc(NC)ncc5c4)c(-c4c(Cl)c(C)cc5[nH]ncc45)c3C)C2)C1 (single isomer, unassigned) [Example 40b]
8.00 | C=CC(=O)N1CC2(CC(n3nc(-c4ccc5nn(CCOCCOC)cc5c4)c(-c4c(Cl)c(C)cc5[nH]ncc45)c3C)C2)C1 (single isomer, unassigned) [Example 43a, 1-{6-[(4M)-4-(5-Chloro-6-methyl-1H-indazol-4-yl)-3-{2-[2-(2-methoxyethoxy)ethyl]-2H-indazol-5-yl}-5-methyl-1H-pyrazol-1-yl]-2-azaspiro[3.3]heptan-2-yl}prop-2-en-1-one]
6.37 | C=CC(=O)N1CC2(CC(n3nc(-c4ccccn4)c(-c4c(Cl)c(C)cc5[nH]ncc45)c3C)C2)C1 (single isomer, unassigned) [Example 46a, 1-(6-(4-(5-chloro-6-methyl-1H-indazol-4-yl)-5-methyl-3-(pyridin-2-yl)-1H-pyrazol-1-yl)-2-azaspiro[3.3]heptan-2-yl)prop-2-en-1-one]
6.64 | C=CC(=O)N1CC2(CC(n3nc(-c4ccncc4C)c(-c4c(Cl)c(C)cc5[nH]ncc45)c3C)C2)C1 (single isomer, unassigned) [Example 49a, 1-(6-(4-(5-chloro-6-methyl-1H-indazol-4-yl)-5-methyl-3-(3-methylpyridin-4-yl)-1H-pyrazol-1-yl)-2-azaspiro[3.3]heptan-2-yl)prop-2-en-1-one]
< 4.30 | C=CC(=O)N1CC2(CC(n3nc(-c4cccnc4)c(-c4c(Cl)ccc5[nH]ncc45)c3C)C2)C1 (single isomer, unassigned) [Example 19b]
< 5.30 | C=CC(=O)N1CC2(CC(n3nc(-c4ccc(COCCOC)cc4)c(-c4c(Cl)c(C)cc5[nH]ncc45)c3C)C2)C1 (single isomer, unassigned) [Example 39b]
5.64 | C=CC(=O)N1CC2(CC(n3nc(-c4ccc5c(cnn5C)c4)c(-c4cc(O)ccc4Cl)c3C)C2)C1 [Example 94, 1-(6-(4-(2-chloro-5-hydroxyphenyl)-5-methyl-3-(1-methyl-1H-indazol-5-yl)-1H-pyrazol-1-yl)-2-azaspiro[3.3]heptan-2-yl)prop-2-en-1-one]
6.31 | C=CC(=O)N1CC2(CC(n3nc(-c4cnc5c(c4)ncn5C)c(-c4c(Cl)c(C)cc5[nH]ncc45)c3C)C2)C1 (single isomer, unassigned) [Example 38a]
5.68 | C=CC(=O)N1CC2(CC(n3nc(-c4ccccc4)c(-c4c(Cl)c(C)cc5[nH]nc(N)c45)c3C)C2)C1 (single isomer, unassigned) [Example 70b, 1-(6-(4-(3-amino-5-chloro-6-methyl-1H-indazol-4-yl)-5-methyl-3-phenyl-1H-pyrazol-1-yl)-2-azaspiro[3.3]heptan-2-yl)prop-2-en-1-one]
5.92 | C=CC(=O)N1CC2(CC(n3nc(C4=CCC(F)(F)CC4)c(-c4c(Cl)c(C)cc5[nH]ncc45)c3C)C2)C1 (single isomer, unassigned) [Example 3b]
6.99 | C=CC(=O)N1CC2(CC(n3nc(-c4ccc5c(c4)ncn5C)c(-c4c(Cl)c(C)cc5[nH]ncc45)c3C)C2)C1 (single isomer, unassigned) [Example 30a]
7.18 | C=CC(=O)N1CC2(CC(n3nc(-c4cnc5c(ccn5C)c4)c(-c4c(Cl)c(C)cc5[nH]ncc45)c3C)C2)C1 (single isomer, unassigned) [Example 8a]
7.64 | C=CC(=O)N1CC2(CC(n3nc(-c4ccc5c(c4)CCN5C(C)=O)c(-c4c(Cl)c(C)cc5[nH]ncc45)c3C)C2)C1 (single isomer, unassigned) [Example 22a]
7.74 | C=CC(=O)N1CC2(CC(n3nc(-c4ccc5c(cnn5CCO)c4)c(-c4c(Cl)c(C)cc5[nH]ncc45)c3C)C2)C1 (single isomer, unassigned) [Example 83a, 1-(6-(4-(5-chloro-6-methyl-1H-indazol-4-yl)-3-(1-(2-hydroxyethyl)-1H-indazol-5-yl)-5-methyl-1H-pyrazol-1-yl)-2-azaspiro[3.3]heptan-2-yl)prop-2-en-1-one]
5.46 | C=CC(=O)N1CC2(CC(n3nc(-c4cnc(OC)nc4)c(-c4c(Cl)ccc5[nH]ncc45)c3C)C2)C1 (single isomer, unassigned) [Example 90a]

pIC50 | SMILES
5.32 | C=CC(=O)N1CC2(CC(n3nc(-c4ccc5c(cnn5CCN(C)C)c4)c(-c4c(Cl)c(C)cc5[nH]ncc45)c3C)C2)C1 (single isomer, unassigned) [Example 15b]
4.83 | C=CC(=O)N1CC2(CC(n3nc(-c4ccc(N5CCN(C)C5=O)cc4)c(-c4c(Cl)c(C)cc5[nH]ncc45)c3C)C2)C1 (single isomer, unassigned) [Example 13b]
7.92 | C=CC(=O)N1CC2(CC(n3nc(-c4ccc5nn(CCN6CC(OC)C6)cc5c4)c(-c4c(Cl)c(C)cc5[nH]ncc45)c3C)C2)C1 (single isomer, unassigned) [Example 82a]
4.70 | C=CC(=O)N1CC2(CC(n3nc(-c4cccnc4)c(-c4c(Cl)c(C)cc5[nH]ncc45)c3C)C2)C1 (single isomer, unassigned) [Example 27b]
5.92 | C=CC(=O)N1CC2(CC(n3nc(-c4ccc5nn(CC(C)(C)O)cc5c4)c(-c4c(Cl)c(C)cc5[nH]ncc45)c3C)C2)C1 (single isomer, unassigned) [Example 42b]
< 4.30 | C=CC(=O)N1CC2(CC(n3nc(-c4cnc5c(c4)ncn5C)c(-c4c(Cl)c(C)cc5[nH]ncc45)c3C)C2)C1 (single isomer, unassigned) [Example 38b]
4.92 | C=CC(=O)N1CC2(CC(n3nc(-c4ccc(C(=O)N(C)CC(C)(C)O)cc4)c(-c4c(Cl)c(C)cc5[nH]ncc45)c3C)C2)C1 (single isomer, unassigned) [Example 67b]
5.28 | C=CC(=O)N1CC2(CC(n3nc(-c4cccc(=O)n4C)c(-c4c(Cl)ccc5[nH]ncc45)c3C)C2)C1 (single isomer, unassigned) [Example 91a]
6.67 | C=CC(=O)N1CC2(CC(n3nc(-c4ccc(OC)nc4)c(-c4c(Cl)c(C)cc5[nH]ncc45)c3C)C2)C1 [Example 78a, 1-(6-(4-(5-chloro-6-methyl-1H-indazol-4-yl)-3-(6-methoxypyridin-3-yl)-5-methyl-1H-pyrazol-1-yl)-2-azaspiro[3.3]heptan-2-yl)prop-2-en-1-one]
< 4.30 | C=CC(=O)N1CC2(CC(n3nc(-c4ccc5c(c4)ncn5C)c(-c4c(Cl)c(C)cc5[nH]ncc45)c3C)C2)C1 (single isomer, unassigned) [Example 30b]
4.59 | C=CC(=O)N1CC2(CC(n3nc(-c4cccnc4C)c(-c4c(Cl)ccc5[nH]ncc45)c3C)C2)C1 (single isomer, unassigned) [Example 89b]
6.08 | C=CC(=O)N1CC2(CC(n3nc(-c4cnn5c4CCC5)c(-c4c(Cl)c(C)cc5[nH]ncc45)c3C)C2)C1 (single isomer, unassigned) [Example 34a]
6.29 | C=CC(=O)N1CC2(CC(n3nc(-c4cnn(S(=O)(=O)C5CC5)c4)c(-c4c(Cl)c(C)cc5[nH]ncc45)c3C)C2)C1 (single isomer, unassigned) [Example 36a]
< 5.30 | C=CC(=O)N1CC2(CC(n3nc(-c4ccc(-n5nccc5N)nc4)c(-c4c(Cl)c(C)cc5[nH]ncc45)c3C)C2)C1 (single isomer, unassigned) [Example 7b]
4.63 | C=CC(=O)N1CC2(CC(n3nc(-c4ccc(CO)cc4)c(-c4c(Cl)c(C)cc5[nH]ncc45)c3C)C2)C1 (single isomer, unassigned) [Example 47b, 1-(6-(4-(5-chloro-6-methyl-1H-indazol-4-yl)-3-(4-(hydroxymethyl)phenyl)-5-methyl-1H-pyrazol-1-yl)-2-azaspiro[3.3]heptan-2-yl)prop-2-en-1-one]
5.27 | C=CC(=O)N1CC2(CC(n3nc(-c4ccncc4C)c(-c4c(Cl)c(C)cc5[nH]ncc45)c3C)C2)C1 (single isomer, unassigned) [Example 49b, 1-(6-(4-(5-chloro-6-methyl-1H-indazol-4-yl)-5-methyl-3-(3-methylpyridin-4-yl)-1H-pyrazol-1-yl)-2-azaspiro[3.3]heptan-2-yl)prop-2-en-1-one]
6.83 | C=CC(=O)N1CC2(CC(n3nc(-c4cnc(N)c(F)c4)c(-c4c(Cl)c(C)cc5[nH]ncc45)c3C)C2)C1 (single isomer, unassigned) [Example 20a]
6.47 | C=CC(=O)N1CC2(CC(n3nc(-c4cccnc4)c(-c4c(Cl)c(Cl)cc5[nH]ncc45)c3C(F)F)C2)C1 (single isomer, unassigned) [Example 85a]
